Measured values: patent publication US20150038500A1, “PHARMACEUTICAL COMPOSITION FOR PREVENTING AND TREATING OPHTHALMIC DISORDERS” (CATHOLIC UNIVERSITY INDUSTRY-ACADEMIC COOPERATION FOUNDATION, priority 2011, published 2015)
“Also recorded” adds a separate entry of the source. One block for each molecule: values may come before it.

How the values were obtained:
[1] = system: MNU (N-methyl-N-nitrosourea)-induced retinal degeneration models; experiment: Efficiency test in MNU-induced retinal degeneration animal model; type: in vivo, Sprague-Dawley rats
Description: The compounds of formula (1) were applied to retinal degeneration which is hard to cure or incurable to evaluate their effects. For this, 3 250-g Sprague-Dawley rats were prepared as a test animal, and injected with 75 mg/kg of N-methyl-N-nitrosourea (MNU) via an intraperitoneal route to induce retinal degeneration, thereby to produce retinal degeneration models. At 30 min. after the retinal degeneration induction, 10 μl of compound 1, that is, (tetrahydropyran-4-ylmethyl)-[2-phenyl-5-(1,1-dioxo-thiomorpholine-4-yl)methyl-1H-indole-7-yl]amine) (KDR Biotech. Co., Ltd., Seoul, Korea) of 50 μM and a physiological saline was injected into the vitreous body of the experimental group and the control group, respectively and then, the same medicines were injected via the same methods after 72 hours of the retinal degeneration induction. To evaluate the healing effects of retinal degeneration in the experimental group and the control group, on the 5th day of the retinal degeneration induction, the animals were anesthetized using 8% chloral hydrate (0.5 mg/kg) and subjected to electroretinogram (ERG) test (UTAS-2000; LKC Technologies, USA), in which scotopic response was recorded as a single flash response having a strength of 0.9 log (cd s) m^−2 or higher. In the meantime, for the histological evaluation of the experimental group and the control group, their eyeballs were extracted from the animals which completed the electroretinogram test on the 5th day of the retinal degeneration induction to produce eyecups, and then they were embedded in wax to produce 5-μm fragments, which were then stained with Hematoxylin & Eosin and observed using a microscope.

corneal wound models = experiment: Corneal wound healing effect test (corneal epithelium removal model); type: in vivo, New Zealand white rabbits
Description: It was examined whether the compounds of formula (1) show clinically stable corneal wound healing effects in ophthalmologic surgery such as LRP (laser reversal of presbyopia), LASIK (laser assisted in-situ keratomileusis) and LASEK (laser assisted sub-epithelial keratomileusis). For this, 16 New Zealand white rabbits of 2.0˜2.5 kg were prepared as test animals, anesthetized via intramuscular injection with 15 mg/kg of Zoletil and 5 mg/kg of Xylazine, and then their corneal epitheliums with diameters of 10-12 mm or so were removed using a surgery blade (No. 15) and a rotary epithelial scrubber to produce corneal wound models. At 30 min. after the above-mentioned surgery, two drops of compound 1, that is, (tetrahydropyran-4-ylmethyl)-[2-phenyl-5-(1,1-dioxo-thiomorpholine-4-yl)methyl-1H-indole-7-yl]amine) (KDR Biotech. Co., Ltd., Seoul, Korea) of 50 μM were applied to the experimental group and two drops of a physiological saline were applied to the control group and then, they wore contact lenses, and one drop of the same medicines was applied at 12-hour intervals. To measure a wound area in the experimental group and the control group, their corneal surfaces were stained with Fluorescin using Fluorescin (Haag-Streit International, Switzerland) strips and their diameters were measured using a microcaliper at 24-hour intervals. In the meantime, for the histological evaluation of the experimental group and the control group, they were anesthetized with 25% urethane on the first, second and third day to extract their eyeballs and then, their anterior eye parts including cornea were embedded in wax (Polyscience, USA) to produce 5-μm fragments, which were then stained with Hematoxylin & Eosin and observed using a microscope.

[2] = system: human retinal pigment epithelial cell line ARPE-19; experiment: Protection efficiency test of retinal pigment epithelial cell (NaIO3-induced apoptosis, MTT assay); type: cell-based; conditions: 10 mM NaIO3 then 1 μM compound
Description: A human retinal pigment epithelial cell line ARPE-19 was treated with 10 mM of NaIO3, which is a retinal pigment epithelial cell apoptosis inducing agent, to induce apoptosis and then, it was treated with compound 2 of the invention, that is, (5-(1,1-dioxo-thiomorpholine-4-yl)methyl-2-phenyl-1H-indole-7-yl)-(1-methanesulfonyl-piperidine-4-yl)-amine (Enzo Life Sciences, Inc.) of 1 μM, and the compound treatment group and the non-treatment group were analyzed about their apoptosis degree using an MTT assay and survived cells were comparatively analyzed.

white rat retina explant = experiment: Retinal nerve cell protection efficiency test on low oxygen stimulation (retinal explant culture); type: cell-based; conditions: hypoxic chamber 30 min, 1 μM compound, cultivated 3 days
Description: A white rat retina was cultivated overnight under explant culture conditions and then, damaged with low oxygen in a hypoxic chamber for 30 min., and cultivated for 3 days with or without being treated with compound 2 of 1 μM, and after the cultivation, the obtained retinal explants were stained and observed using a microscope.

[3] = 10 μl of 50 μM intravitreal at 30 min and 72 hours, ERG on 5th day

ERG response higher than the control group [1, 3]: 200%
Compound: O=S1(=O)CCN(Cc2cc(NCC3CCOCC3)c3[nH]c(-c4ccccc4)cc3c2)CC1 [compound 1, (tetrahydropyran-4-ylmethyl)-[2-phenyl-5-(1,1-dioxo-thiomorpholine-4-yl)methyl-1H-indole-7-yl]amine]
electroretinogram a- and b-wave response compared to control group [1, 3]: increased response in both a- and b-waves
retinal tissue fragments stained with Hematoxylin & Eosin (histology) ([1]; 10 μl of 50 μM intravitreal, 5th day, control showed severe retinal degeneration): close to a normal tissue; also recorded: well-aligned retinal structure
time until corneal wound healed (Fluorescin stain) (corneal wound models; 50 μM eye drops at 12-hour intervals, saline control healed on the 4th to 5th day): ≤ 3 days
healing effect on damaged corneal area (fluorescin staining) in comparison with control group (corneal wound models; 50 μM eye drops, damaged areas right after wound induction and on the third day): statistically significant (*** P<0.001) healing effect
corneal epithelium in Hematoxylin & Eosin stained corneal tissue fragments (corneal wound models; 50 μM eye drops, third day of drug treatment, control epithelium remained damaged): completely restored

Compound: CS(=O)(=O)N1CCC(Nc2cc(CN3CCS(=O)(=O)CC3)cc3cc(-c4ccccc4)[nH]c23)CC1 [compound 2, (5-(1,1-dioxo-thiomorpholine-4-yl)methyl-2-phenyl-1H-indole-7-yl)-(1-methanesulfonyl-piperidine-4-yl)-amine]
survived cells (MTT assay) in comparison with control group [2]: statistically significant (* P<0.05; Student's t-test) survival results
outer nuclear layer (ONL) and inner nuclear layer (INL) of retinal explant after low oxygen damage (white rat retina explant): well preserved
